Assay results taken from US20100160445A1, “Synergistic Mixtures of OPP and DGH” (priority 2002, published 2010).
Counter-ions that a name gives are not always drawn. Like-named read-outs stand apart in the source and are kept apart here.

Tested on: mixed inoculum of bacteria
Assay: MIC and synergy (K) in nutrient broth, microtiter plates
Format: cell-based
Description: Stock solutions of each product were prepared in sterile distilled water. Synergism was measured by the method first described by F. C. Kull, P. C. Eisman, H. D. Sylwestrowicz and R. L. Mayer in Applied Microbiology, 9, 538-41 ([…]). This manner of determining synergism has been widely used and is industrially acceptable. It is believed that the specified method is sufficient in explaining the process. However for a further description, reference can be made to U.S. Pat. No. 3,231,509 and its file history, where this type of data was considered acceptable.
• 1. Incubator capable of maintaining a variable temperature range (25-45 C) • 2. Samples of each biocide or test compound to be examined • 3. Microtiter plates—96 well with lid, sterile. • 4. 8-12 channel micropipetting device capable of pipetting 0-250 ul volumes • 5. Micropipette tips capable of holding up to 250 ul volumes • 6. Sterile microbiological culture broth. Trypticase Soy Broth (TSB) or Nutrient Broth (NB) is recommended for bacteria and Sabouraud Maltose Broth (SMB) or Sabouraud Dextrose Broth (SDB) is recommended for yeasts and molds. In the case of this particular study the microbiological culture medium was Nutrient Broth at pH 7.0, 8.0 and 9.0. • 7. Pure cultures of microorganisms of choice grown on appropriate agar medium • 8. Sterile distilled water • 9. 100 mL volumetric flasks (one for each biocide to be tested) • 10. Sterile 10 mL tubes of Phosphate buffer (Butterfield's buffer pH 7.2+/−0.2). Contains purified water, monobasic potassium phosphate and sodium hydroxide for pH adjustment. • 11. Sterile cotton swabs • 12. 0.5 MacFarland Turbidity Standard
The day before testing, perform a streak plate of each organism to be tested on an appropriate agar medium (Trypticase Soy Agar). Organisms tested in this study were: Wild strain bacteria isolated from previously contaminated industrial systems and which were identified as: Pseudomonas sp., Escherchia coli , Enterobacter sp., Alcaligenes sp. and Alcaligenes faecalis. On the day of the test, use a sterile cotton swab to harvest some of the growth. Place swab into a tube containing 10 mL sterile phosphate buffer. Compare and adjust the turbidity of the organisms in the tube to 1×10^8 cfu/mL using a 0.5 MacFarland Turbidity Standard. Dilute the 10 mL tube into 90 mL of sterile 2× nutrient broth at pH 7.0, 8.0 and 9.0.
1. Design the layout of the microtiter plates based on the number of organisms to test and the number of biocides and desired concentrations to test. A separate microtiter plate is required for testing each biocide alone, in addition to the combination microtiter plate. 2. Prepare a working stock solution of each biocide to be tested. For the combination microtiter plate, the working stock solution of Biocide A will be 8× the concentration desired in the first well of the combination microtiter plate. The working stock solution of Biocide B will be 4× the concentration desired in the first well of the combination microtiter plate. For the alone microtiter plates, the working stock solutions of Biocide A and Biocide B will both be 4× the concentration desired in the first well of the single biocide microtiter plates.
Dodecylguanidine hydrochloride: (For combination plates) A solution of this product which is 35% active, was made as follows: […]=8000 ppm active=8000/0.35=22,857 ppm, 2.28 g into 100 mL sterile diH2O. Levels to test are: 1000 ppm, 500 ppm, 250 ppm, 125 ppm, 62.5 ppm, 31.2 ppm, 15.6 ppm, 7.8 ppm, 3.9 ppm, 1.95 ppm
Ortho-PhenylPhenol: (For combination plates) Make a solution of this product which is 99% active, 4×125=500 ppm active=500/0.99=505 ppm, 0.05 g into 100 mL MeOH and sterile diH2O. Level to test is 125 ppm.
3. Place 50 ul of sterile distilled water in all of the rows in columns 1 through 10, and 100 ul of sterile distilled water in all of the rows in columns 11 and 12 of the 96 well combination microtiter plate. […]

CCCCCCCCCCCCNC(=N)N [DGH, Dodecylguanidine Hydrochloride]
MIC (pH 7, read-out: MIC, biocide alone): 62.5 µg/mL
Synergy Index (pH 7.0, 62.5 ppm DGH alone (100:0)): 1.00
MIC (pH 8, read-out: MIC, biocide alone): 15.6 µg/mL
Synergy Index (pH 8.0, 15.6 ppm DGH alone (100:0)): 1.00
MIC (pH 9, read-out: MIC, biocide alone): 15.6 µg/mL
Synergy Index (pH 9.0, 15.6 ppm DGH alone (100:0)): 1.00
